According to the NIST ThermoML archive (doi:10.1016/j.jct.2013.12.025):

Test: xn = mol fraction of the nth substance listed
Conditions: 101 kPa, Liquid, Vibrating tube method

C=C[Si](C)(C)O[Si](C)(C)C=C [1,3-diethenyl-1,1,3,3-tetramethyldisiloxane] + Clc1ccccc1
mass density [kg/m3]
Conditions | 283.15 K | 288.15 K | 293.15 K | 298.15 K | 303.15 K
x1 = 0.05 | 1088.46 | 1083.08 | 1077.71 | 1072.36 | 1066.76
x1 = 0.0998 | 1062.49 | 1057.12 | 1051.77 | 1046.38 | 1040.76
x1 = 0.15 | 1038.61 | 1033.26 | 1027.97 | 1022.56 | 1017.01
x1 = 0.1996 | 1017.1 | 1011.78 | 1006.49 | 1001.12 | 995.49
x1 = 0.25 | 997.1 | 991.8 | 986.55 | 981.23 | 975.62
x1 = 0.2999 | 978.91 | 973.63 | 968.41 | 963.12 | 957.62
x1 = 0.35 | 962.04 | 956.8 | 951.57 | 946.3 | 940.79
x1 = 0.3999 | 946.48 | 941.25 | 936.1 | 930.87 | 925.47
x1 = 0.4496 | 932.12 | 926.93 | 921.78 | 916.57 | 911.17
x1 = 0.4999 | 918.61 | 913.45 | 908.32 | 903.14 | 897.77
x1 = 0.5499 | 906.09 | 900.94 | 895.84 | 890.68 | 885.33
x1 = 0.6 | 894.37 | 889.27 | 884.19 | 879.04 | 873.73
x1 = 0.6469 | 884.06 | 878.98 | 873.94 | 868.82 | 863.55
x1 = 0.6998 | 873.18 | 868.11 | 863.11 | 858.02 | 852.81
x1 = 0.7499 | 863.47 | 858.44 | 853.45 | 848.41 | 843.25
x1 = 0.7997 | 854.39 | 849.39 | 844.44 | 839.42 | 834.3
x1 = 0.8499 | 845.78 | 840.8 | 835.87 | 830.88 | 825.82
x1 = 0.8996 | 837.7 | 832.75 | 827.85 | 822.88 | 817.86
x1 = 0.9497 | 830 | 825.08 | 820.22 | 815.27 | 810.3
x1 = 1 | 822.68 | 817.77 | 812.94 | 808.01 | 803.06

C=C[Si](C)(C)O[Si](C)(C)C=C [1,3-diethenyl-1,1,3,3-tetramethyldisiloxane] + Fc1ccccc1
mass density [kg/m3]
Conditions | 283.15 K | 288.15 K | 293.15 K | 298.15 K | 303.15 K
x1 = 0.05 | 1013.6 | 1007.66 | 1001.73 | 995.86 | 989.74
x1 = 0.1 | 992.96 | 987.08 | 981.21 | 975.37 | 969.31
x1 = 0.15 | 974.59 | 968.74 | 962.94 | 957.17 | 951.1
x1 = 0.1993 | 958.3 | 952.51 | 946.77 | 941.03 | 934.98
x1 = 0.25 | 943.25 | 937.46 | 931.8 | 926.13 | 920.12
x1 = 0.2999 | 929.85 | 924.19 | 918.57 | 913 | 907.17
x1 = 0.35 | 917.58 | 911.93 | 906.37 | 900.84 | 895
x1 = 0.4 | 906.43 | 900.85 | 895.33 | 889.86 | 884.09
x1 = 0.45 | 896.19 | 890.66 | 885.22 | 879.75 | 874.12
x1 = 0.5 | 886.76 | 881.29 | 875.91 | 870.51 | 864.97
x1 = 0.5501 | 878.08 | 872.69 | 867.38 | 862.04 | 856.56
x1 = 0.6 | 870.07 | 864.73 | 859.45 | 854.19 | 848.77
x1 = 0.6501 | 862.6 | 857.33 | 852.11 | 846.89 | 841.53
x1 = 0.7 | 855.69 | 850.46 | 845.29 | 840.15 | 834.87
x1 = 0.7501 | 849.23 | 844.06 | 838.93 | 833.84 | 828.63
x1 = 0.8 | 843.23 | 838.1 | 833.02 | 827.99 | 822.84
x1 = 0.85 | 837.56 | 832.51 | 827.46 | 822.49 | 817.39
x1 = 0.8998 | 832.28 | 827.28 | 822.3 | 817.36 | 812.32
x1 = 0.95 | 827.28 | 822.33 | 817.38 | 812.49 | 807.52
x1 = 1 | 822.56 | 817.66 | 812.74 | 807.9 | 802.97
